Measured values from patent US8962263B2, “Methods and compositions for detecting the activation state of multiple proteins in single cells” (The Board of Trustees of the Leland Stanford Junior …, priority 2001, dated 2015).

B1: ICAM-2: biochemically purified soluble human ICAM-2 protein from retrovirally transduced NIH3T3 cells; ICAM-2-FC fusion also used (protein, UniProt P13598 25-223, looked up)
extracellular domain: KVFEVHVRPKKLAVEPKGSLEVNCSTTCNQPEVGGLETSLDKILLDEQAQWKHYLVSNISHDTVLQCHFTCSGKQESMNSNVSVYQPPRQVILTLQPTLVAVGKSFTIECRVPTVEPLDSLTLFLFRGNETLHYETFGKAAPAPQEATATFNSTADREDGHRNFSCLAVLDLMSRGGNIFHKHSAPKMLEIYEPVSDSQ
modifications: extracellular domain
notes: biochemically purified soluble human ICAM-2 protein from retrovirally transduced NIH3T3 cells; ICAM-2-FC fusion also used

How the values were obtained:
Pyk2 = test: sICAM-2 induced Pyk2 phosphorylation (phospho-tyrosine based ELISA, chemical genetic approach); format: cell-based; conditions: phospho-tyrosine based ELISA
Procedure, shortened: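 Chemical genetic approach: sICAM-2-stimulated cells treated with selected kinase/pathway inhibitors (PKC inhibitors BIM I, BIM II, staurosporine; tyrphostin A9; neomycin; piceatannol); phosphorylation status of Pyk2 and Syk measured by phospho-tyrosine ELISA.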

ezrin = test: phosphotyrosine-protein based elisa for ezrin tyrosine phosphorylation upon ICAM-2 ligation; format: cell-based, human; conditions: Jurkat cells
HL60 cells = test: FACS based effector-target killing assay, human PBMC against CFSE labeled HL60 cells; format: cell-based; conditions: 10 μg/ml, 50:1 E:T ratio, 4 hrs
Method: A) PBMC were either treated with ICAM-2, (10 μg/ml) in the presence of IL-2, for 12, hr and then incubated with CFSE labeled target HL60, cells at a 50:1, E:T ratio for 4, hrs. Remaining HL60, cells were quantified by flow cytometry. B) PBMC were treated with IL-2, (100, U/ml, 12, hrs) and treated with ICAM-1,-2, or 3, FC proteins (10, μg/ml) and used in a cytotoxicity assay as described above. Results are representative of 4, independent experiments.
Target cell lysis was measured by flow cytoemtric based detection of CFSE labeled HL60 cells. HL60 cells were labeled with 1 μg of CFSE (30 min, 37° C.). Targets were washed twice and mock treated, IL-2 activated (100 U/ml), CD3/CD28 activated (1 μg/ml), or treated with ICAM2 beads or soluble ICAM-1, -2, or 3 (10 μg/ml, 30 min, 37° C.) before plating at 10^4 target cells/well of a 96-well round bottom plate. CTLs were added at 50:1, 25:1, and 12.5:1 E:T ratio, and incubated at 37° C. for 4 hrs. Cells were then processed for multiparameter flow cytometry and intracellular perforin stain. Percent specific lysis was calculated by the following equation: % specific lysis=100-100×(experimental HL60 count/total control HL60 count). HL60 counts were detectable by the CFSE fluorescence. Percent perforin was calculated by the following equation: % perforin=100×[(experimental perforin MFI−isotype mAb MFI)/(total perforin MFI−isotype mAb MFI)]. MFI refers to mean fluorescent intensity of flow cytoemtric based intracellular detection. Cell conjugates were determined by flow cytometry as described (Morgan et al., 2001). Chemical inhibition was done at 10 μM of indicated compound (30 min, 37° C.) prior to stimulation as indicated. All experiments were performed in triplicate.

| Molecule | sICAM-2 induced Pyk2 phosphorylation (Pyk2) | tyrosine phosphorylation of ezrin (ezrin) | target cell lysis of HL60 cells (HL60 cells) |
| --- | --- | --- | --- |
| CN(C)CCCn1cc(C2=C(c3c[nH]c4ccccc34)C(=O)NC2=O)c2ccccc21 [bisindolymaleimide I] | affected | minor affects | – |
| B1 | – | – | could initiate target cell lysis in the presence of IL-2 but not in the absence of IL-2 |
